Reference: PubChem BioAssay (NCI)
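48-hour exposure; five concentrations; linearly interpolated endpoints. The concentration for 50% growth inhibition is given as GI50. The concentration for full growth arrest is given as TGI.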

Experiments:
Assay in all cases: DTP human tumour cell line panel, 48 h
NCI-H226 lung = test system: NCI-H226 lung
SNB-75 CNS = test system: SNB-75 CNS
786-0 renal = test system: 786-0 renal
SN12C renal = test system: SN12C renal
NCI-H460 lung = test system: NCI-H460 lung
SK-MEL-2 melanoma = test system: SK-MEL-2 melanoma
NCI-H23 lung = test system: NCI-H23 lung
HL-60(TB) leukemia = test system: HL-60(TB) leukemia
NCI/ADR-RES ovarian = test system: NCI/ADR-RES ovarian
HOP-62 NSCLC = test system: HOP-62 NSCLC

## COc1ccccc1CNC(=O)/C=C/c1ccc(O)c(O)c1
NCI-H226 lung
  GI50: 51.8 µM
  TGI: > 100 µM
SNB-75 CNS
  GI50: 86.5 µM
  TGI: > 100 µM
786-0 renal
  GI50: 76.1 µM
  TGI: > 100 µM
SN12C renal
  GI50: 68.6 µM
  TGI: > 100 µM
NCI-H460 lung
  GI50: 45.9 µM
  TGI: > 100 µM
SK-MEL-2 melanoma
  GI50: > 100 µM
  TGI: > 100 µM
NCI-H23 lung
  GI50: 77.6 µM
  TGI: > 100 µM
HL-60(TB) leukemia
  GI50: 45.2 µM
  TGI: > 100 µM
NCI/ADR-RES ovarian
  GI50: 66 µM
  TGI: > 100 µM
HOP-62 NSCLC
  GI50: 61.9 µM
  TGI: > 100 µM

## CCCCc1n(Cc2ccc3ccccc3n2)cc[n+]1Cc1ccc2ccccc2c1
NCI-H226 lung
  GI50: 1 µM
  TGI: 6.12 µM
SNB-75 CNS
  GI50: 0.289 µM
  TGI: 1.74 µM
786-0 renal
  GI50: 1.6 µM
  TGI: 3.89 µM
SN12C renal
  GI50: 0.685 µM
  TGI: 2.21 µM
NCI-H460 lung
  GI50: 0.917 µM
  TGI: 2.95 µM
SK-MEL-2 melanoma
  GI50: 0.977 µM
  TGI: 2.64 µM
NCI-H23 lung
  GI50: 0.508 µM
  TGI: 3.98 µM
HL-60(TB) leukemia
  GI50: 0.251 µM
  TGI: 0.755 µM
NCI/ADR-RES ovarian
  GI50: 24.2 µM
  TGI: > 100 µM
HOP-62 NSCLC
  GI50: 1.72 µM
  TGI: 5.25 µM

## COc1ccc(/C=N/C2=NNC(C)(c3ccccc3O)N2C(Cc2c[nH]c3ccccc23)C(=O)O)cc1 (stereo not drawn)
NCI-H226 lung
  GI50: 2.16 µM
  TGI: 10.3 µM
SNB-75 CNS
  GI50: 1.72 µM
  TGI: 13.4 µM
786-0 renal
  GI50: 3.36 µM
  TGI: 13 µM
SN12C renal
  GI50: 3.11 µM
  TGI: 11.3 µM
NCI-H460 lung
  GI50: 2.55 µM
  TGI: 8.51 µM
SK-MEL-2 melanoma
  GI50: 2.27 µM
  TGI: 5.81 µM
NCI-H23 lung
  GI50: 2.28 µM
  TGI: 8.61 µM
HL-60(TB) leukemia
  GI50: 2.28 µM
  TGI: 8.9 µM
NCI/ADR-RES ovarian
  GI50: 2.76 µM
  TGI: 14 µM
HOP-62 NSCLC
  GI50: 2.58 µM
  TGI: 11.9 µM

## CCN1Cc2c(/C=C/c3ccccc3)nc3ccc(OC)cc3c2N(c2cccc(Cl)c2)C1
NCI-H226 lung
  GI50: 1.65 µM
  TGI: 3.5 µM
SNB-75 CNS
  GI50: 1.8 µM
  TGI: 6.1 µM
786-0 renal
  GI50: 3.17 µM
  TGI: 8.83 µM
SN12C renal
  GI50: 2.43 µM
  TGI: 7.82 µM
NCI-H460 lung
  GI50: 1.64 µM
  TGI: 3.27 µM
SK-MEL-2 melanoma
  GI50: 1.72 µM
  TGI: 3.56 µM
NCI-H23 lung
  GI50: 1.67 µM
  TGI: 4.2 µM
HL-60(TB) leukemia
  GI50: 2.08 µM
  TGI: 5.66 µM
NCI/ADR-RES ovarian
  GI50: 2.1 µM
  TGI: 5.22 µM
HOP-62 NSCLC
  GI50: 1.64 µM
  TGI: 3.09 µM

## CCN(CC)CCC(CNc1c(C)cnc2cc(Cl)ccc12)c1ccc(Cl)c(Cl)c1 (stereo not drawn)
NCI-H226 lung
  GI50: 13.5 µM
  TGI: 30.8 µM
SNB-75 CNS
  GI50: 3.9 µM
  TGI: 18.7 µM
786-0 renal
  GI50: 2.37 µM
  TGI: 5.74 µM
SN12C renal
  GI50: 7.67 µM
  TGI: 23.7 µM
NCI-H460 lung
  GI50: 2.63 µM
  TGI: 10.7 µM
SK-MEL-2 melanoma
  GI50: 2.67 µM
  TGI: 7.73 µM
NCI-H23 lung
  GI50: 5.62 µM
  TGI: 20.6 µM
HL-60(TB) leukemia
  GI50: 2.13 µM
  TGI: 5.12 µM
NCI/ADR-RES ovarian
  GI50: 6.33 µM
  TGI: 21.3 µM
HOP-62 NSCLC
  GI50: 4.69 µM
  TGI: 17.6 µM

## COC(=O)C1OC(SCCN)C(O)C(O)C1O (stereo not drawn)
NCI-H226 lung
  TGI: > 100 µM
SNB-75 CNS
  TGI: > 100 µM
786-0 renal
  TGI: > 100 µM
SN12C renal
  TGI: > 100 µM
NCI-H460 lung
  TGI: > 100 µM
SK-MEL-2 melanoma
  TGI: > 100 µM
NCI-H23 lung
  TGI: > 100 µM
HL-60(TB) leukemia
  TGI: > 100 µM
NCI/ADR-RES ovarian
  TGI: > 100 µM
HOP-62 NSCLC
  TGI: > 100 µM

## CCN1C(=O)N[C@H]2[C@@H]3NC(=O)c4ccc(Cl)n4[C@@H]3C[C@]21O
NCI-H226 lung
  GI50: 0.543 µM
  TGI: 5.7 µM
SNB-75 CNS
  GI50: 0.663 µM
  TGI: 7.63 µM
786-0 renal
  GI50: 0.902 µM
  TGI: 9.06 µM
SN12C renal
  GI50: 0.42 µM
  TGI: 9.13 µM
NCI-H460 lung
  GI50: 0.395 µM
  TGI: 16.6 µM
SK-MEL-2 melanoma
  GI50: 0.301 µM
  TGI: 1.21 µM
NCI-H23 lung
  GI50: 0.531 µM
  TGI: 4.52 µM
HL-60(TB) leukemia
  GI50: 0.242 µM
  TGI: 0.634 µM
NCI/ADR-RES ovarian
  GI50: 12 µM
  TGI: 89.8 µM
HOP-62 NSCLC
  GI50: 0.466 µM
  TGI: 3.71 µM

## COc1cc(NC(=O)c2cc3ccccc3cc2O)c(OC)cc1Cl
NCI-H226 lung
  GI50: 1.45 µM
  TGI: 6.04 µM
SNB-75 CNS
  GI50: 1.44 µM
  TGI: 5.04 µM
786-0 renal
  GI50: 2.86 µM
  TGI: 9.18 µM
SN12C renal
  GI50: 1.87 µM
  TGI: 6.36 µM
NCI-H460 lung
  GI50: 1.9 µM
  TGI: 4.91 µM
SK-MEL-2 melanoma
  GI50: 2.74 µM
  TGI: 6.95 µM
NCI-H23 lung
  GI50: 1.59 µM
  TGI: 7.05 µM
HL-60(TB) leukemia
  GI50: 1.32 µM
  TGI: 15.3 µM
NCI/ADR-RES ovarian
  GI50: 1.99 µM
  TGI: 6.03 µM
HOP-62 NSCLC
  GI50: 1.44 µM
  TGI: 4.7 µM

## Cn1c(=O)c2[nH]c(CCS)nc2n(C)c1=O
NCI-H226 lung
  TGI: > 100 µM
SNB-75 CNS
  TGI: 67.7 µM
786-0 renal
  TGI: > 100 µM
SN12C renal
  TGI: > 100 µM
NCI-H460 lung
  TGI: > 100 µM
SK-MEL-2 melanoma
  TGI: > 100 µM
NCI-H23 lung
  TGI: > 100 µM
HL-60(TB) leukemia
  TGI: > 100 µM
NCI/ADR-RES ovarian
  TGI: > 100 µM
HOP-62 NSCLC
  TGI: > 100 µM

## COc1ccc(-n2nc(C(=O)NCC(=O)Nc3nc4cc(OC)ccc4s3)c3ccccc3c2=O)cc1
NCI-H226 lung
  GI50: 1.48 µM
  TGI: 7.5 µM
SNB-75 CNS
  GI50: 0.554 µM
  TGI: 2.08 µM
786-0 renal
  GI50: 1.96 µM
  TGI: 8.19 µM
SN12C renal
  GI50: 3.45 µM
  TGI: > 40.7 µM
NCI-H460 lung
  GI50: 0.556 µM
SK-MEL-2 melanoma
  GI50: 1.69 µM
  TGI: 5.12 µM
NCI-H23 lung
  GI50: 1.32 µM
  TGI: 9 µM
HL-60(TB) leukemia
  GI50: > 100 µM
  TGI: > 100 µM
NCI/ADR-RES ovarian
  GI50: 1.35 µM
HOP-62 NSCLC
  GI50: 0.663 µM
  TGI: 2.07 µM
